According to ChEMBL document CHEMBL5291721, “A preclinical secondary pharmacology resource illuminates target-adverse drug reaction associations of marketed drugs” (Nat Commun, 2023):

Legend:
[1] = target: Voltage-gated inwardly rectifying potassium channel KCNH2 (Homo sapiens, UniProt Q12809); assay type: functional; details: read-out: AC50
[2] = target: Sodium-dependent dopamine transporter (Homo sapiens, UniProt Q01959)
[3] = target: 5-hydroxytryptamine receptor 2B (Homo sapiens, UniProt P41595); assay type: functional, cell-based
[4] = target: cGMP-inhibited 3',5'-cyclic phosphodiesterase 3A (Homo sapiens, UniProt Q14432); assay type: functional
[5] = target: T1, Prostaglandin G/H synthase 1 (Homo sapiens, UniProt P23219); assay type: functional
[6] = target: Sodium-dependent noradrenaline transporter (Homo sapiens, UniProt P23975)
[7] = target: T2, 5-hydroxytryptamine receptor 1A (Homo sapiens, UniProt P08908)
T2 sequence (P08908 whole entry): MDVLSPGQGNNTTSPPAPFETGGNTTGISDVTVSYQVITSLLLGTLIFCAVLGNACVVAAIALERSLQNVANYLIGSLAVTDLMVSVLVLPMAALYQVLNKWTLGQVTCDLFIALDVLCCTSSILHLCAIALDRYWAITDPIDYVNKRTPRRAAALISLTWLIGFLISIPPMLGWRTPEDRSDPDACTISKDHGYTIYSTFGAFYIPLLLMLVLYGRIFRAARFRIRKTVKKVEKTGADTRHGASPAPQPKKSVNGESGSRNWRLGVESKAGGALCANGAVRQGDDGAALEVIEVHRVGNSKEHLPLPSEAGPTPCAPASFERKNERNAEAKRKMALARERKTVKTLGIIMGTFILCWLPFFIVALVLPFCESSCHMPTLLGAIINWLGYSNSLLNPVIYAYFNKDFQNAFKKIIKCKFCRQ

[8] = target: Mu-type opioid receptor (Homo sapiens, UniProt P35372)
[9] = target: Bile salt export pump (Homo sapiens, UniProt O95342); assay type: functional
[10] = target: T1, Prostaglandin G/H synthase 1; assay type: functional; remark: listed apart in the source
[11] = target: Prothrombin (Homo sapiens, UniProt P00734); assay type: functional
[12] = target: D(3) dopamine receptor (Homo sapiens, UniProt P35462)
[13] = target: D(1A) dopamine receptor (Homo sapiens, UniProt P21728)
[14] = target: T3, Muscarinic acetylcholine receptor M2 (Homo sapiens, UniProt P08172)
T3 sequence (P08172 whole entry): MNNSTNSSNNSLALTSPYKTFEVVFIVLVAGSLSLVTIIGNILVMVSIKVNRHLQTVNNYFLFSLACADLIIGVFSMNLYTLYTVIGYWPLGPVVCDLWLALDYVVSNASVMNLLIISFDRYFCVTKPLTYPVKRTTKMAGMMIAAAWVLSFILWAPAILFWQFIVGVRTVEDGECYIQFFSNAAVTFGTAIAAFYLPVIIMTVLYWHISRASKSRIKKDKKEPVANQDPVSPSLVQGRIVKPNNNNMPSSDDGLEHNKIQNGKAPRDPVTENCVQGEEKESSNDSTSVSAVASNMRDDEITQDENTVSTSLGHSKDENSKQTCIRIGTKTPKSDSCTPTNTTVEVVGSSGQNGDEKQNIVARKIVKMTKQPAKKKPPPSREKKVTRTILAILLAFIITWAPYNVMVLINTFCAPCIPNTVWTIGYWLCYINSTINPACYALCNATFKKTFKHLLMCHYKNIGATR

[15] = target: Histamine H3 receptor (Homo sapiens, UniProt Q9Y5N1)
[16] = target: Acetylcholinesterase (Homo sapiens, UniProt P22303); assay type: functional
[17] = target: T4, Thromboxane A2 receptor (Homo sapiens, UniProt P21731); assay type: functional, cell-based
T4 sequence (P21731 whole entry): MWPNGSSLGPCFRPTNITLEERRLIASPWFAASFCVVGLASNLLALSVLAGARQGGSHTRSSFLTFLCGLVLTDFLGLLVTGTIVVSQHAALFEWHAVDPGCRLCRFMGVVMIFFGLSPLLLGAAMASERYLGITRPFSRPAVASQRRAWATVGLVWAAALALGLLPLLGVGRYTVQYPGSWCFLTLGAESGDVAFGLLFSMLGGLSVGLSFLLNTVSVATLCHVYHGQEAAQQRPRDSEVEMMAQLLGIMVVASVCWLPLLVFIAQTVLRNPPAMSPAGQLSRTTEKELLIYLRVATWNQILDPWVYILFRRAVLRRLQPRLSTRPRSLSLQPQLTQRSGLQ

[18] = target: T5, Amine oxidase [flavin-containing] A (Homo sapiens, UniProt P21397); assay type: functional
T5 sequence (P21397 whole entry): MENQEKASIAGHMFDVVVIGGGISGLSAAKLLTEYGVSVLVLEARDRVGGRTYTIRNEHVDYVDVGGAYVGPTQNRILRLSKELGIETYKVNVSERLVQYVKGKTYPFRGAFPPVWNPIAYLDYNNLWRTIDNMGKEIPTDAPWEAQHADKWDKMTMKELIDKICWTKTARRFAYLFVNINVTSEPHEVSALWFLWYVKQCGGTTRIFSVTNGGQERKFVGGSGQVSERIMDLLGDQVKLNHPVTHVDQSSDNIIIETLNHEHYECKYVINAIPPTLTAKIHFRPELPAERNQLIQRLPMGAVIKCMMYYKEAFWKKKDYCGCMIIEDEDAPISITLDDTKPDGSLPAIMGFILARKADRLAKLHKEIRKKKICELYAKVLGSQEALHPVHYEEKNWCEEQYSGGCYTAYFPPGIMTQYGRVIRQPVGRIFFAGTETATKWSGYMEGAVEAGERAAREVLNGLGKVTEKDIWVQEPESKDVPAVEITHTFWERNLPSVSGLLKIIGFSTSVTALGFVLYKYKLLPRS

[19] = target: T4, Thromboxane A2 receptor; assay type: functional, cell-based; remark: listed apart in the source
[20] = target: 3',5'-cyclic-AMP phosphodiesterase 4A (Homo sapiens, UniProt P27815); assay type: functional
Further: assay procedure not described here.

Mu-type opioid receptor, sequence (P35372 whole entry): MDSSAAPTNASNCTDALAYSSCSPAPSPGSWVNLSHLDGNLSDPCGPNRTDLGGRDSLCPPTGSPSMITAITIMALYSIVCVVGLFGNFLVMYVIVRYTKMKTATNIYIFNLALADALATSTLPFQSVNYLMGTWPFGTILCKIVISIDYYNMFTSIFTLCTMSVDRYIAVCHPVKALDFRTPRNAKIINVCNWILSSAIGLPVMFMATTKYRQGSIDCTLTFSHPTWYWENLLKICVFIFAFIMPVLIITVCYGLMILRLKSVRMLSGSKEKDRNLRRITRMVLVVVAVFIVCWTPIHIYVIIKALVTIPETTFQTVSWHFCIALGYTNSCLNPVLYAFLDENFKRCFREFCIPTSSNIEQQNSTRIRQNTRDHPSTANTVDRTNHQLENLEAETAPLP
cGMP-inhibited 3',5'-cyclic phosphodiesterase 3A, sequence (Q14432 whole entry): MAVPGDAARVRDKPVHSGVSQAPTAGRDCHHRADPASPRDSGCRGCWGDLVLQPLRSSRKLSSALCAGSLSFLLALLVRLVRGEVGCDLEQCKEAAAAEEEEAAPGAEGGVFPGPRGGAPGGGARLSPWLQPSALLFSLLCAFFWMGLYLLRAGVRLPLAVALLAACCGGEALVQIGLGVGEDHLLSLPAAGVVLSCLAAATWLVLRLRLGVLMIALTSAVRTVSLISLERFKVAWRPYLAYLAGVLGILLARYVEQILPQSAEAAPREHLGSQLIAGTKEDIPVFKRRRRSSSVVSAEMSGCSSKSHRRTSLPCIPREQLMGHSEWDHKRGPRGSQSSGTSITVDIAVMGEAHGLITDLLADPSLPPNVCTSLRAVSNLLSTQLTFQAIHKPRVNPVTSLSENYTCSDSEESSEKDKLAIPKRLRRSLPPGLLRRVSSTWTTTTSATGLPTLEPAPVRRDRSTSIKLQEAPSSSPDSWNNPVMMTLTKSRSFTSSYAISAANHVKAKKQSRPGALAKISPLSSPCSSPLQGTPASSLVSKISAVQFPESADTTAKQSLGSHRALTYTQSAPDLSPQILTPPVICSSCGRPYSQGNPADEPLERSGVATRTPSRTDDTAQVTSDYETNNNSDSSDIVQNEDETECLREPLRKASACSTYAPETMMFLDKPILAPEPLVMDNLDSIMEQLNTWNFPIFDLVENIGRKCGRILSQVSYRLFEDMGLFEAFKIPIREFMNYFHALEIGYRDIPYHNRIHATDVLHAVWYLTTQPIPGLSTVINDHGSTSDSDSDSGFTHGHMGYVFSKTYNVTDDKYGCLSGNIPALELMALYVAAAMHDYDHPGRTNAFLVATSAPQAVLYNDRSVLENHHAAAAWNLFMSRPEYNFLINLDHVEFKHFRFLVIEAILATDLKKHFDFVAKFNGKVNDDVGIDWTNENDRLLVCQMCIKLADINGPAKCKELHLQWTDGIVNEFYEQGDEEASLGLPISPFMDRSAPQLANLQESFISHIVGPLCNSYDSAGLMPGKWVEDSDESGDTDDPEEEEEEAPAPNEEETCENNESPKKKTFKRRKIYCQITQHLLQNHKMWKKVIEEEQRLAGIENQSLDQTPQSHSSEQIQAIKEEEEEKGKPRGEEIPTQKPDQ
D(3) dopamine receptor, sequence (P35462 whole entry): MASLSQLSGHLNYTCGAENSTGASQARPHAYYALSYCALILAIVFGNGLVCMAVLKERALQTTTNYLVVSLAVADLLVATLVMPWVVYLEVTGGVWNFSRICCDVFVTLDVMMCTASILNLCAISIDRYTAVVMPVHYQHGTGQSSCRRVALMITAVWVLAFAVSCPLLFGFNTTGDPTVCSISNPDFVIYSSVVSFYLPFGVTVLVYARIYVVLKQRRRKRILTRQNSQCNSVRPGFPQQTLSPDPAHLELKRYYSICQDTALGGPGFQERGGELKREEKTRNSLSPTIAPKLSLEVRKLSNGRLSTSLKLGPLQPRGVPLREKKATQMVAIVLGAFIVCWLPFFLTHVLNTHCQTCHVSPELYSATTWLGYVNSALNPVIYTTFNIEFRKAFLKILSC
Voltage-gated inwardly rectifying potassium channel KCNH2, sequence (Q12809 whole entry): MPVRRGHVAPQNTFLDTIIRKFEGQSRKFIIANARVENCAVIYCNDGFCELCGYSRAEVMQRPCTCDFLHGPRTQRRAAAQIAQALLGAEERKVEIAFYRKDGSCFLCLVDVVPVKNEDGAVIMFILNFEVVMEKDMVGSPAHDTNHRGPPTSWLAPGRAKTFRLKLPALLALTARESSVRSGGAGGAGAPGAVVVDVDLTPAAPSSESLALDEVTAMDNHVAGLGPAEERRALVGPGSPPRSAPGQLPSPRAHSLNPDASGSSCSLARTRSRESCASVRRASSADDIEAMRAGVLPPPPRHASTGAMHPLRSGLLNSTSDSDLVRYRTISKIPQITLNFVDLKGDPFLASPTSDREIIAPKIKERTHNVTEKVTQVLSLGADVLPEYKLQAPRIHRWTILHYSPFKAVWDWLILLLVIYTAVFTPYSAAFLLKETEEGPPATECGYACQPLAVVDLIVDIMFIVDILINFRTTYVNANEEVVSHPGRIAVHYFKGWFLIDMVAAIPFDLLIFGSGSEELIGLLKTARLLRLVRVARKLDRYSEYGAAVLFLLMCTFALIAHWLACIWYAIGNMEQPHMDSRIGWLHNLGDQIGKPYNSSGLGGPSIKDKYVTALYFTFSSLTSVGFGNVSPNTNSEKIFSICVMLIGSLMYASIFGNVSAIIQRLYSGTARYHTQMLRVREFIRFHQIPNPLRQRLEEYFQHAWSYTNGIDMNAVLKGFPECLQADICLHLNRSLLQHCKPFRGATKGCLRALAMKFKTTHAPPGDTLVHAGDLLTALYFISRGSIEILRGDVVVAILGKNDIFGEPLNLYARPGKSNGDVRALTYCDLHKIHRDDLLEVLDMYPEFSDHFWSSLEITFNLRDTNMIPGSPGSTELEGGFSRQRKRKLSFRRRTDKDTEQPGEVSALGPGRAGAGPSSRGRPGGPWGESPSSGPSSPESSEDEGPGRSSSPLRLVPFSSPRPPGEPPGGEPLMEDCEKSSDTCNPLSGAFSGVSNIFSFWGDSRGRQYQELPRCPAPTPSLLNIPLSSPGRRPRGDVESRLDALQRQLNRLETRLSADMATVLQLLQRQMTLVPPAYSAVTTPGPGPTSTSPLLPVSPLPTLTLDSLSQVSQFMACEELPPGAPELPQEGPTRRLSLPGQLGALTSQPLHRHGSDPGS
Histamine H3 receptor, sequence (Q9Y5N1 whole entry): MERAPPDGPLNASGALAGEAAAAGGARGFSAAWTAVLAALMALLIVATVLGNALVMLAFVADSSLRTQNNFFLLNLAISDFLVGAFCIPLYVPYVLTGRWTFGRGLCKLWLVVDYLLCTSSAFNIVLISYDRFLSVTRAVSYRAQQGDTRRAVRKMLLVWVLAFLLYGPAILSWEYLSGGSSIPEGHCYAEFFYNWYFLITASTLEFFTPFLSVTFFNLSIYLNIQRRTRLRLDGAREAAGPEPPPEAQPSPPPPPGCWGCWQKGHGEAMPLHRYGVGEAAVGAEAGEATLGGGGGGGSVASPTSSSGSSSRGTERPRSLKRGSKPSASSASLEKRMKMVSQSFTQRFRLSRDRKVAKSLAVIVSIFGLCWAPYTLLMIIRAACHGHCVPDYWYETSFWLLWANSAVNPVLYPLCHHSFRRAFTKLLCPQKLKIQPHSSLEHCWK
D(1A) dopamine receptor, sequence (P21728 whole entry): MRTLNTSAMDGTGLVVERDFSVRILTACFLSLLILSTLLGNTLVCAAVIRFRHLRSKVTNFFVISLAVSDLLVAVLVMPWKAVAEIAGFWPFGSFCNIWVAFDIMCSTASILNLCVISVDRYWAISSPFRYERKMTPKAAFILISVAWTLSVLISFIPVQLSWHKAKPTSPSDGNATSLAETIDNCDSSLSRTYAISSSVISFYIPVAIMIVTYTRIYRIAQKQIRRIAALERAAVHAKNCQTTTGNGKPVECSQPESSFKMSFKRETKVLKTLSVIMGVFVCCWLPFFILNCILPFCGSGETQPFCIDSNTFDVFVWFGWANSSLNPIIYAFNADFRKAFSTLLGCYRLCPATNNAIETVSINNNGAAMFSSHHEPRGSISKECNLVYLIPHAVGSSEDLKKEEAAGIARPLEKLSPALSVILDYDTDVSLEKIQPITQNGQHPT
T1 sequence (P23219 whole entry): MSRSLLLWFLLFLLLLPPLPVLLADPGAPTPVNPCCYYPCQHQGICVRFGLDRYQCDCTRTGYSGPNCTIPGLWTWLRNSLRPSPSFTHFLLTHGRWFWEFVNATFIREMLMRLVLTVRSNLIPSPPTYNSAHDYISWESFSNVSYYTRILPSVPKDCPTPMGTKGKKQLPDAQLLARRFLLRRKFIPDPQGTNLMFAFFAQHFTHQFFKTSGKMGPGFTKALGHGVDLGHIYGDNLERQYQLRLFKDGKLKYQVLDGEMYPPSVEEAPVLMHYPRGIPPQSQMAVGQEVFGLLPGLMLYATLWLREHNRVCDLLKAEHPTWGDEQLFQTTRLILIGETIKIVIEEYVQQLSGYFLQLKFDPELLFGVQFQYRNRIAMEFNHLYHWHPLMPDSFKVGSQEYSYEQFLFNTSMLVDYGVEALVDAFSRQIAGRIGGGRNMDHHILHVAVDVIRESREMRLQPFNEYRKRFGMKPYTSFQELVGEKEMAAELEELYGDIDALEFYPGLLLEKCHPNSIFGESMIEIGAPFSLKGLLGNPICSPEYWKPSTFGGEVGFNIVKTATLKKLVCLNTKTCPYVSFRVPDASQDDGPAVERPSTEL

For `O=C(O)COc1nn(Cc2ccccc2)c2ccccc12` [BENDAZAC], the AC50 [1] was over 30 µM, the AC50 [2] was over 30 µM and the AC50 [3] was over 30 µM. It also gave an AC50 [4] of over 30 µM, an AC50 [5] of over 30 µM and an AC50 [6] of over 30 µM. For the same compound, the AC50 [7] was over 30 µM, the AC50 [8] was over 30 µM and the AC50 [9] was 260 µM. For the same compound, the AC50 [10] was over 30 µM, the AC50 [11] was over 30 µM and the AC50 [12] was over 30 µM. The AC50 [13] was over 30 µM, the AC50 [14] was over 30 µM and the AC50 [15] was over 30 µM. For the same compound, the AC50 [16] was over 30 µM, the AC50 [17] was over 30 µM and the AC50 [18] was over 30 µM. For the same compound, the AC50 [19] was over 3 µM and the AC50 [20] was over 30 µM.
`CC(=O)Oc1ccccc1C(=O)Nc1ncc([N+](=O)[O-])s1` [NITAZOXANIDE] was tested, and the AC50 [2] was over 30 µM, the AC50 [3] was over 30 µM and the AC50 [4] was over 30 µM. For the same compound, the AC50 [5] was 9.53 µM, the AC50 [6] was over 30 µM and the AC50 [7] was over 30 µM. For the same compound, the AC50 [8] was over 30 µM, the AC50 [9] was 45 µM and the AC50 [10] was 0.0114 µM. The AC50 [11] was over 30 µM, the AC50 [12] was over 30 µM and the AC50 [13] was over 30 µM. For the same compound, the AC50 [14] was over 30 µM, the AC50 [15] was over 30 µM and the AC50 [16] was over 10 µM. For the same compound, the AC50 [17] was over 30 µM, the AC50 [18] was over 30 µM and the AC50 [19] was over 10 µM. For the same compound, the AC50 [20] was over 30 µM.
With `CCCCCCCCCCC[C@@H](C[C@@H]1OC(=O)[C@H]1CCCCCC)OC(=O)[C@H](CC(C)C)NC=O` [ORLISTAT] the AC50 [1] was over 30 µM, the AC50 [2] was over 30 µM and the AC50 [3] was over 30 µM. For the same compound, the AC50 [4] was over 30 µM, the AC50 [5] was over 30 µM and the AC50 [6] was over 30 µM. For the same compound, the AC50 [7] was over 30 µM, the AC50 [8] was over 30 µM and the AC50 [9] was over 300 µM. For the same compound, the AC50 [10] was over 30 µM, the AC50 [11] was over 30 µM and the AC50 [12] was over 30 µM. For the same compound, the AC50 [13] was over 30 µM, the AC50 [14] was over 30 µM and the AC50 [15] was over 30 µM. The AC50 [17] was over 30 µM, the AC50 [18] was over 30 µM and the AC50 [19] was over 30 µM. The AC50 [20] was over 30 µM.
`CC(C)COc1ccc(CNC(=O)N(Cc2ccc(F)cc2)C2CCN(C)CC2)cc1` [PIMAVANSERIN] gave an AC50 [2] of 12.8 µM, an AC50 [3] of over 30 µM and an AC50 [4] of over 30 µM. For the same compound, the AC50 [5] was over 30 µM, the AC50 [6] was 6.92 µM and the AC50 [7] was over 30 µM. It also gave an AC50 [8] of 16.7 µM, an AC50 [9] of 65 µM and an AC50 [10] of over 30 µM. The AC50 [11] was over 30 µM, the AC50 [12] was 2.66 µM and the AC50 [13] was 5.78 µM. It also gave an AC50 [14] of 4.6 µM, an AC50 [15] of 28.7 µM and an AC50 [16] of over 30 µM. The AC50 [17] was 14.1 µM, the AC50 [18] was over 30 µM and the AC50 [19] was over 3 µM. The AC50 [20] was over 30 µM.
`CCCCCCCCNC(C)C(O)c1ccc(SC(C)C)cc1` (configuration not stated) [SULOCTIDIL] was tested, and the AC50 [1] was 0.43 µM, the AC50 [2] was 2.21 µM and the AC50 [3] was over 30 µM. The AC50 [4] was over 30 µM, the AC50 [5] was 15.5 µM and the AC50 [6] was 1.39 µM. The AC50 [7] was 0.216 µM, the AC50 [8] was 7.07 µM and the AC50 [9] was 64 µM. It also gave an AC50 [10] of over 30 µM, an AC50 [11] of over 30 µM and an AC50 [12] of 0.671 µM. The AC50 [13] was 11.3 µM, the AC50 [14] was 3.41 µM and the AC50 [15] was 27.4 µM. The AC50 [16] was over 30 µM, the AC50 [17] was over 10 µM and the AC50 [18] was over 30 µM. For the same compound, the AC50 [20] was 20.9 µM.
Work on `Cn1c(=O)c2[nH]cnc2n(C)c1=O` [THEOPHYLLINE] yielded an AC50 [1] of over 30 µM, an AC50 [2] of over 30 µM and an AC50 [3] of over 30 µM. For the same compound, the AC50 [5] was over 30 µM, the AC50 [6] was over 30 µM and the AC50 [7] was over 30 µM. The AC50 [8] was over 30 µM, the AC50 [9] was over 300 µM and the AC50 [10] was over 30 µM. It also gave an AC50 [11] of over 30 µM, an AC50 [12] of over 30 µM and an AC50 [13] of over 30 µM. For the same compound, the AC50 [14] was over 30 µM, the AC50 [15] was over 30 µM and the AC50 [16] was over 30 µM. It also gave an AC50 [17] of over 30 µM, an AC50 [18] of over 30 µM and an AC50 [19] of over 30 µM.
Work on `NCCc1ccc(O)cc1` [TYRAMINE] yielded an AC50 [1] of over 30 µM, an AC50 [2] of over 30 µM and an AC50 [3] of over 30 µM. The AC50 [4] was over 30 µM, the AC50 [5] was over 3 µM and the AC50 [6] was 22.2 µM. The AC50 [7] was 7.88 µM, the AC50 [8] was over 30 µM and the AC50 [9] was over 300 µM. For the same compound, the AC50 [10] was over 30 µM, the AC50 [11] was over 30 µM and the AC50 [14] was over 30 µM. It also gave an AC50 [15] of over 30 µM, an AC50 [16] of over 30 µM and an AC50 [17] of over 30 µM. For the same compound, the AC50 [18] was over 30 µM, the AC50 [19] was over 30 µM and the AC50 [20] was over 30 µM.
